The NIST ThermoML archive (doi:10.1016/j.jct.2015.05.024)

Assay: xn = mol fraction of the nth substance listed
Conditions: 100 kPa, Liquid; for mass density: Vibrating tube method; for speed of sound: Frequency=5 MHz, Pulse-echo method

OCCOCCOCCO [triethylene glycol] + O
Conditions	mass density [kg/m3]	speed of sound [m/s]
278.15 K, x1 = 0.0107	1013.31	–
278.15 K, x1 = 0.02047	1024.39	–
278.15 K, x1 = 0.03972	1043.4	–
278.15 K, x1 = 0.04979	1051.97	–
278.15 K, x1 = 0.06996	1066.64	–
278.15 K, x1 = 0.09424	1080.57	–
278.15 K, x1 = 0.1481	1100.99	–
278.15 K, x1 = 0.2006	1112.25	–
278.15 K, x1 = 0.2502	1118.67	–
278.15 K, x1 = 0.2988	1122.73	–
278.15 K, x1 = 0.3492	1125.61	–
278.15 K, x1 = 0.3925	1127.4	–
278.15 K, x1 = 0.4502	1129.18	–
278.15 K, x1 = 0.4877	1130.08	–
278.15 K, x1 = 0.5004	1130.35	–
278.15 K, x1 = 0.5739	1131.64	–
278.15 K, x1 = 0.58	1131.73	–
278.15 K, x1 = 0.6465	1132.58	–
278.15 K, x1 = 0.651	1132.63	–
278.15 K, x1 = 0.7008	1133.14	–
278.15 K, x1 = 0.7471	1133.54	–
278.15 K, x1 = 0.7677	1133.7	–
278.15 K, x1 = 0.82	1134.08	–
278.15 K, x1 = 0.8623	1134.35	–
278.15 K, x1 = 0.8792	1134.45	–
278.15 K, x1 = 0.8975	1134.56	–
278.15 K, x1 = 0.9203	1134.69	–
278.15 K, x1 = 0.9514	1134.86	–
278.15 K, x1 = 0.9692	1134.96	–
278.15 K, x1 = 1	1135.14	–
283.15 K, x1 = 0.0107	1012.65	–
283.15 K, x1 = 0.02047	1023.4	–
283.15 K, x1 = 0.03972	1041.83	–
283.15 K, x1 = 0.04979	1050.13	–
283.15 K, x1 = 0.06996	1064.35	–
283.15 K, x1 = 0.09424	1077.85	–
283.15 K, x1 = 0.1481	1097.71	–
283.15 K, x1 = 0.2006	1108.7	–
283.15 K, x1 = 0.2502	1115	–
283.15 K, x1 = 0.2988	1119.01	–
283.15 K, x1 = 0.3492	1121.86	–
283.15 K, x1 = 0.3925	1123.64	–
283.15 K, x1 = 0.4502	1125.41	–
283.15 K, x1 = 0.4877	1126.3	–
283.15 K, x1 = 0.5004	1126.57	–
283.15 K, x1 = 0.5739	1127.85	–
283.15 K, x1 = 0.58	1127.94	–
283.15 K, x1 = 0.6465	1128.79	–
283.15 K, x1 = 0.651	1128.84	–
283.15 K, x1 = 0.7008	1129.34	–
283.15 K, x1 = 0.7471	1129.73	–
283.15 K, x1 = 0.7677	1129.89	–
283.15 K, x1 = 0.82	1130.26	–
283.15 K, x1 = 0.8623	1130.52	–
283.15 K, x1 = 0.8792	1130.62	–
283.15 K, x1 = 0.8975	1130.73	–
283.15 K, x1 = 0.9203	1130.86	–
283.15 K, x1 = 0.9514	1131.03	–
283.15 K, x1 = 0.9692	1131.12	–
283.15 K, x1 = 1	1131.29	–
288.15 K, x1 = 0.000601	–	1469.7
288.15 K, x1 = 0.001928	–	1476.6
288.15 K, x1 = 0.00461	–	1490.1
288.15 K, x1 = 0.008532	–	1508.9
288.15 K, x1 = 0.0107	1011.72	–
288.15 K, x1 = 0.01366	–	1532
288.15 K, x1 = 0.01989	–	1557.7
288.15 K, x1 = 0.02047	1022.17	–
288.15 K, x1 = 0.02548	–	1578.7
288.15 K, x1 = 0.03449	–	1609.1
288.15 K, x1 = 0.03972	1040.07	–
288.15 K, x1 = 0.04517	–	1639.9
288.15 K, x1 = 0.04979	1048.13	–
288.15 K, x1 = 0.05131	–	1655.2
288.15 K, x1 = 0.05713	–	1668.3
288.15 K, x1 = 0.06261	–	1679.5
288.15 K, x1 = 0.0692	–	1691.5
288.15 K, x1 = 0.06996	1061.93	–
288.15 K, x1 = 0.07424	–	1699.8
288.15 K, x1 = 0.08016	–	1708.5
288.15 K, x1 = 0.08433	–	1714.1
288.15 K, x1 = 0.08832	–	1719
288.15 K, x1 = 0.09298	–	1724.2
288.15 K, x1 = 0.09424	1075.05	–
288.15 K, x1 = 0.09657	–	1727.8
288.15 K, x1 = 0.1007	–	1731.7
288.15 K, x1 = 0.1021	–	1732.9
288.15 K, x1 = 0.1045	–	1734.9
288.15 K, x1 = 0.1091	–	1738.4
288.15 K, x1 = 0.1208	–	1745.7
288.15 K, x1 = 0.1237	–	1747.2
288.15 K, x1 = 0.1281	–	1749.1
288.15 K, x1 = 0.1302	–	1750
288.15 K, x1 = 0.133	–	1751
288.15 K, x1 = 0.1394	–	1753
288.15 K, x1 = 0.1441	–	1754.2
288.15 K, x1 = 0.1474	–	1754.8
288.15 K, x1 = 0.1481	1094.39	–
288.15 K, x1 = 0.1578	–	1756.3
288.15 K, x1 = 0.1678	–	1756.8
288.15 K, x1 = 0.1774	–	1756.7
288.15 K, x1 = 0.1904	–	1755.7
288.15 K, x1 = 0.2006	1105.14	–
288.15 K, x1 = 0.2055	–	1753.5
288.15 K, x1 = 0.2329	–	1748
288.15 K, x1 = 0.2502	1111.33	–
288.15 K, x1 = 0.2559	–	1742.5
288.15 K, x1 = 0.2967	–	1731.9
288.15 K, x1 = 0.2988	1115.27	–
288.15 K, x1 = 0.3235	–	1725.1
288.15 K, x1 = 0.3492	1118.09	–
288.15 K, x1 = 0.3699	–	1714
288.15 K, x1 = 0.3925	1119.86	–
288.15 K, x1 = 0.4089	–	1705.2
288.15 K, x1 = 0.4502	1121.62	–
288.15 K, x1 = 0.4877	1122.51	–
288.15 K, x1 = 0.5004	1122.77	–
288.15 K, x1 = 0.5029	–	1686.5
288.15 K, x1 = 0.5739	1124.05	–
288.15 K, x1 = 0.58	1124.13	–
288.15 K, x1 = 0.6337	–	1667
288.15 K, x1 = 0.6465	1124.97	–
288.15 K, x1 = 0.651	1125.02	–
288.15 K, x1 = 0.7008	1125.51	–
288.15 K, x1 = 0.745	–	1657.9
288.15 K, x1 = 0.7471	1125.9	–
288.15 K, x1 = 0.7677	1126.06	–
288.15 K, x1 = 0.82	1126.42	–
288.15 K, x1 = 0.8623	1126.68	–
288.15 K, x1 = 0.8792	1126.78	–
288.15 K, x1 = 0.8795	–	1649.6
288.15 K, x1 = 0.8975	1126.88	–
288.15 K, x1 = 0.9203	1127.01	–
288.15 K, x1 = 0.9514	1127.17	–
288.15 K, x1 = 0.9612	–	1645.9
288.15 K, x1 = 0.9692	1127.27	–
288.15 K, x1 = 1	1127.43	1643.9
293.15 K, x1 = 0.000681	–	1485.6
293.15 K, x1 = 0.002463	–	1494
293.15 K, x1 = 0.005001	–	1505.7
293.15 K, x1 = 0.007787	–	1518
293.15 K, x1 = 0.01463	–	1546.1
293.15 K, x1 = 0.02045	–	1567.9
293.15 K, x1 = 0.0276	–	1592.1
293.15 K, x1 = 0.03276	–	1608
293.15 K, x1 = 0.0418	–	1632.7
293.15 K, x1 = 0.04898	–	1649.9
293.15 K, x1 = 0.05561	–	1664
293.15 K, x1 = 0.06315	–	1678
293.15 K, x1 = 0.0678	–	1685.8
293.15 K, x1 = 0.0736	–	1694.6
293.15 K, x1 = 0.08161	–	1705.1
293.15 K, x1 = 0.08886	–	1713.2
293.15 K, x1 = 0.09701	–	1721
293.15 K, x1 = 0.1043	–	1726.7
293.15 K, x1 = 0.1091	–	1730
293.15 K, x1 = 0.1142	–	1733
293.15 K, x1 = 0.12	–	1735.9
293.15 K, x1 = 0.1325	–	1740.6
293.15 K, x1 = 0.1374	–	1741.9
293.15 K, x1 = 0.1445	–	1743.3
